Results taken from patent publication US10717766B2, “Antimicrobial peptides and uses thereof” (TECHNION RESEARCH & DEVELOPMENT FOUNDATION LIMITED, priority 2016, dated 2020).
Where two headings read alike, the source gives them in different places.

Columns and labels:
[1] = system: Staphylococcus epidermidis ATCC 12228; experiment: antibacterial activity (MIC) of fragments against Staphylococcus epidermidis ATCC 12228; type: cell-based; conditions: FIG. 5
Procedure: (§1) Extended fragments of the LFKFFK (SEQ ID NO: 1) sequence were derived from Staphylococcus aureus (PSMα3 derivatives) in order to determine the minimum peptide length critical for the antibacterial activity. […] Therefore, the antibacterial activity of its fragments comprising SEQ ID NO: 1, as listed in Table 1, were examined on the growth of Staphylococcus epidermidis ATCC 12228 cells, Staphylococcus hominis, and Lactobacillus casei after 24 hours from treatment with 0.5 mM peptide at 37° C. under agitation compared to control (bacterial growth w/o peptide). Lactobacillus casei are probiotic bacteria. Therefore, the peptides listed in Table 1 were also tested against bacteria of the human flora.

Micrococcus luteus = experiment: diameter of the growth inhibition of Micrococcus luteus cells; type: cell-based; conditions: for growth inhibition of Micrococcus luteus: FIG. 2A; for diameter of the growth inhibition of Micrococcus luteus: various concentrations
Text: The anti-bacterial activity of LFKFFK peptide (SEQ ID NO: 1), KLFKFFK peptide (SEQ ID NO: 3) and control peptides with a hydrophobic/cationic amino-acid composition, IIKVIK (SEQ ID NO: 10) and IIKIIK (SEQ ID NO: 11), was examined by determining the diameter of the growth inhibition of Micrococcus luteus cells.

Staphylococcus hominis [2] = experiment: growth of Staphylococcus hominis after treatment with 0.5 mM peptide; type: cell-based; conditions: 24 hours, 37° C. under agitation, FIG. 6
Procedure: as §1

Staphylococcus hominis [3] = experiment: minimal inhibition concentration (MIC) against Staphylococcus hominis; type: cell-based; conditions: O.D600 nm after 24 hours incubation at 37° C. with agitation, FIG. 4
Procedure: N-terminal acetylation of peptides is known to enhance fibril formation. Therefore, the bacterial growth of Staphylococcus hominis was tested by capped peptides of SEQ ID NO: 1 and 2. […] The lowest concentration at which no growth was observed is determined as the MIC. The experiment was performed in triplicates.

bacteria = conditions: native full-length 22-residue peptide, cited from earlier work

## Ac-KLFKFFKDLL-NH2 (listed as Staphylococcus aureus) [compound 5]
[1]
  anti-bacterial activity (MIC) against Staphylococcus epidermidis ATCC 12228: better anti-bacterial activity

## Ac-KLFKFFKDLLG-NH2 (listed as Staphylococcus aureus) [compound 6]
[1]
  anti-bacterial activity (MIC) against Staphylococcus epidermidis ATCC 12228: better anti-bacterial activity

## LFKFFK (listed as Staphylococcus aureus) [fragment of PSMalpha3]
Micrococcus luteus
  growth inhibition of Micrococcus luteus: inhibit the growth
Micrococcus luteus; FIG. 2B
  diameter of the growth inhibition of Micrococcus luteus: dose-dependent effect

## Ac-KLFKFFKD-NH2 (listed as Staphylococcus aureus) [compound 3]
Staphylococcus hominis [2]
  antibacterial effect against S. hominis (growth compared to control w/o peptide): partially active

## Ac-VAKLFKFFKDLLGKFL-NH2 (listed as Staphylococcus aureus) [peptide 8]
[1]
  anti-bacterial activity (MIC) against Staphylococcus epidermidis ATCC 12228: fails to exhibit any antibacterial activity

## Ac-KLFKFFK-NH2 (listed as Staphylococcus aureus) [compound 2]
Staphylococcus hominis [3]
  MIC: 15
Staphylococcus hominis [2]
  antibacterial effect against S. hominis (growth compared to control w/o peptide): partially active

## KLFKFFK (listed as Staphylococcus aureus)
Micrococcus luteus
  growth inhibition of Micrococcus luteus: inhibit the growth
Micrococcus luteus; FIG. 2B
  toxicity to Micrococcus Luteus compared with LFKFFK: even more toxic
  diameter of the growth inhibition of Micrococcus luteus: dose-dependent effect

## Ac-LFKFFK-NH2 (listed as Staphylococcus aureus) [compound 1]
Staphylococcus hominis [2]
  antibacterial effect against S. hominis (growth compared to control w/o peptide): partially active

## MEFVAKLFKFFKDLLGKFLGNN [PSMalpha3]
bacteria
  antibacterial activity: lacks antibacterial activity
bacteria; listed as SEQ ID NO: 2
  antibacterial activity: lack an antibacterial activity
